Activity calls are given as the source filed them. How the calls were made is not given here.
Test system: CCRIS mutagenicity, Ames/micronucleus/aberration tests
Assay: CCRIS mutagenicity studies
[1] = Test System: AMES SALMONELLA TYPHIMURIUM, Strain/Indicator: TA98, Metabolic Activation: NONE, Method: STANDARD PLATE
[2] = Test System: AMES SALMONELLA TYPHIMURIUM, Strain/Indicator: TA100, Metabolic Activation: NONE, Method: STANDARD PLATE
[3] = Test System: AMES SALMONELLA TYPHIMURIUM, Strain/Indicator: TA100, Metabolic Activation: RAT, LIVER, S-9, AROCLOR 1254, Method: STANDARD PLATE
[4] = Test System: AMES SALMONELLA TYPHIMURIUM, Strain/Indicator: TA1535, Metabolic Activation: NONE, Method: STANDARD PLATE
[5] = Test System: AMES SALMONELLA TYPHIMURIUM, Strain/Indicator: TA1538, Metabolic Activation: NONE, Method: STANDARD PLATE
[6] = Test System: AMES SALMONELLA TYPHIMURIUM, Strain/Indicator: TA98, Metabolic Activation: NONE, Method: PREINCUBATION
[7] = Test System: AMES SALMONELLA TYPHIMURIUM, Strain/Indicator: TA100, Metabolic Activation: NONE, Method: PREINCUBATION

CC(=O)CC(=O)CCC(=O)O
mutagenic call (Test System: AMES SALMONELLA TYPHIMURIUM, Strain/Indicator: TA98, Metabolic Activation: HAMSTER, LIVER, S-9, AROCLOR 1254, Method: STANDARD PLATE): inactive; negative
mutagenic call [1]: inactive; negative
mutagenic call (Test System: AMES SALMONELLA TYPHIMURIUM, Strain/Indicator: TA98, Metabolic Activation: RAT, LIVER, S-9, AROCLOR 1254, Method: STANDARD PLATE): inactive; negative
mutagenic call (Test System: AMES SALMONELLA TYPHIMURIUM, Strain/Indicator: TA100, Metabolic Activation: HAMSTER, LIVER, S-9, AROCLOR 1254, Method: STANDARD PLATE): inactive; negative
mutagenic call [2]: inactive; negative
mutagenic call [3]: inactive; negative
mutagenic call (Test System: AMES SALMONELLA TYPHIMURIUM, Strain/Indicator: TA1535, Metabolic Activation: HAMSTER, LIVER, S-9, AROCLOR 1254, Method: STANDARD PLATE): inactive; negative
mutagenic call [4]: inactive; negative
mutagenic call (Test System: AMES SALMONELLA TYPHIMURIUM, Strain/Indicator: TA1535, Metabolic Activation: RAT, LIVER, S-9, AROCLOR 1254, Method: STANDARD PLATE): inactive; negative
mutagenic call (Test System: AMES SALMONELLA TYPHIMURIUM, Strain/Indicator: TA1537, Metabolic Activation: HAMSTER, LIVER, S-9, AROCLOR 1254, Method: STANDARD PLATE): inactive; negative
mutagenic call (Test System: AMES SALMONELLA TYPHIMURIUM, Strain/Indicator: TA1537, Metabolic Activation: NONE, Method: STANDARD PLATE): inactive; negative
mutagenic call (Test System: AMES SALMONELLA TYPHIMURIUM, Strain/Indicator: TA1537, Metabolic Activation: RAT, LIVER, S-9, AROCLOR 1254, Method: STANDARD PLATE): inactive; negative
mutagenic call (Test System: AMES SALMONELLA TYPHIMURIUM, Strain/Indicator: TA1538, Metabolic Activation: HAMSTER, LIVER, S-9, AROCLOR 1254, Method: STANDARD PLATE): inactive; negative
mutagenic call [5]: inactive; negative
mutagenic call (Test System: AMES SALMONELLA TYPHIMURIUM, Strain/Indicator: TA1538, Metabolic Activation: RAT, LIVER, S-9, AROCLOR 1254, Method: STANDARD PLATE): inactive; negative
mutagenic call (Test System: CHINESE HAMSTER V-79, Strain/Indicator: V-79 (HGPRT)/6-THIOGUANINE, Metabolic Activation: NONE): inactive; negative
mutagenic call (Test System: MOUSE LYMPHOMA, Strain/Indicator: L5178Y (TK+/TK-), Metabolic Activation: NONE, Method: SUSPENSION/PLATE): inactive; negative. reevaluation of results: negative
mutagenic call (Test System: MOUSE LYMPHOMA, Strain/Indicator: L5178Y (TK+/TK-), Metabolic Activation: RAT, LIVER, S-9, AROCLOR 1254, Method: SUSPENSION/PLATE): active; positive. reevaluation of results: positive

Oc1ccc2ccc3c4ccccc4ccc3c2c1
mutagenic call [1]: inactive; negative
mutagenic call [2]: inactive; negative
mutagenic call [3]: active; positive

Cc1ccc([N+](=O)[O-])c(S(=O)(=O)O)c1[N+](=O)[O-]
mutagenic call (End Point: In vitro chromosomal aberrations, Test System: V79 Chinese hamster fibroblasts, Metabolic Activation: None): inactive; negative
mutagenic call (Test System: Ames Salmonella typhimurium, Strain/Indicator: TA98, Metabolic Activation: None, Method: Standard plate): inactive; negative
mutagenic call (Test System: Ames Salmonella typhimurium, Strain/Indicator: TA98, Metabolic Activation: Rat, Liver, S-9, Method: Standard plate): inactive; negative
mutagenic call (Test System: Ames Salmonella typhimurium, Strain/Indicator: TA100, Metabolic Activation: None, Method: Standard plate): inactive; negative
mutagenic call (Test System: Ames Salmonella typhimurium, Strain/Indicator: TA100, Metabolic Activation: Rat, Liver, S-9, Method: Standard plate): inactive; negative

COc1ccc2nc3cc(Cl)ccc3c(NCCCNCCCl)c2c1
mutagenic call (Test System: AMES SALMONELLA TYPHIMURIUM, Strain/Indicator: TA97A, Metabolic Activation: NONE, Method: STANDARD PLATE): active; positive
mutagenic call [1]: active; positive
mutagenic call [2]: active; positive
mutagenic call [4]: inactive; negative
mutagenic call (Test System: AMES SALMONELLA TYPHIMURIUM, Strain/Indicator: TA1536, Metabolic Activation: NONE, Method: STANDARD PLATE): active; positive
mutagenic call [5]: active; positive
mutagenic call (Test System: CHINESE HAMSTER V-79, Strain/Indicator: V-79/6-THIOGUANINE, Metabolic Activation: NONE, Method: FLASK ASSAY): active; positive
mutagenic call (Test System: CHO/HGPRT, Strain/Indicator: CHO-K1-BH4, Metabolic Activation: NONE, Method: STANDARD PLATE): active; positive
mutagenic call (Test System: UDS RODENT CELLS, Strain/Indicator: THY INCORP (NON-S-PHASE), Metabolic Activation: NONE, Method: LIQUID SCINTILLATION COUNTING): active; positive

COc1cccc(C(=O)CBr)c1
mutagenic call [6]: inactive; negative
mutagenic call (Test System: AMES SALMONELLA TYPHIMURIUM, Strain/Indicator: TA98, Metabolic Activation: RAT, LIVER, S-9, PCB, Method: PREINCUBATION): inactive; negative
mutagenic call [7]: inactive; negative
mutagenic call (Test System: AMES SALMONELLA TYPHIMURIUM, Strain/Indicator: TA100, Metabolic Activation: RAT, LIVER, S-9, PCB, Method: PREINCUBATION): inactive; negative
mutagenic call (Test System: E. COLI, Strain/Indicator: WP2 UVRA, Metabolic Activation: NONE, Method: PREINCUBATION): inactive; negative

N#Cc1ccc([N+](=O)[O-])cc1
mutagenic call [6]: inactive; negative
mutagenic call (Test System: AMES SALMONELLA TYPHIMURIUM, Strain/Indicator: TA98, Method: PREINCUBATION): inactive; negative
mutagenic call [7]: inactive; negative
mutagenic call (Test System: AMES SALMONELLA TYPHIMURIUM, Strain/Indicator: TA100, Method: PREINCUBATION): inactive; negative
mutagenic call (Test System: AMES SALMONELLA TYPHIMURIUM, Strain/Indicator: TA1535, Metabolic Activation: NONE, Method: PREINCUBATION): inactive; negative
mutagenic call (Test System: AMES SALMONELLA TYPHIMURIUM, Strain/Indicator: TA1535, Method: PREINCUBATION): inactive; negative
mutagenic call (Test System: AMES SALMONELLA TYPHIMURIUM, Strain/Indicator: TA1537, Metabolic Activation: NONE, Method: PREINCUBATION): inactive; negative
mutagenic call (Test System: AMES SALMONELLA TYPHIMURIUM, Strain/Indicator: TA1537, Method: PREINCUBATION): inactive; negative
mutagenic call (Test System: AMES SALMONELLA TYPHIMURIUM, Strain/Indicator: TA1538, Metabolic Activation: NONE, Method: PREINCUBATION): inactive; negative
mutagenic call (Test System: AMES SALMONELLA TYPHIMURIUM, Strain/Indicator: TA1538, Method: PREINCUBATION): inactive; negative

Cc1ccc2c(ccc3ccccc32)c1
mutagenic call (Test System: AMES SALMONELLA TYPHIMURIUM, Strain/Indicator: TA97, Metabolic Activation: NONE, Method: STANDARD PLATE): inactive; negative
mutagenic call (Test System: AMES SALMONELLA TYPHIMURIUM, Strain/Indicator: TA97, Metabolic Activation: RAT, LIVER, S-9, PCB, Method: STANDARD PLATE): active; positive
mutagenic call [1]: inactive; negative
mutagenic call (Test System: AMES SALMONELLA TYPHIMURIUM, Strain/Indicator: TA98, Metabolic Activation: RAT, LIVER, S-9, PCB, Method: STANDARD PLATE): active; positive
mutagenic call [2]: inactive; negative
mutagenic call (Test System: AMES SALMONELLA TYPHIMURIUM, Strain/Indicator: TA100, Metabolic Activation: RAT, LIVER, S-9, PCB, Method: STANDARD PLATE): active; positive

O=NN(CCCl)C(=O)NCCCl
mutagenic call (End Point: In vitro micronucleus, Test System: Human lymphoblastoid TK6 cells, Metabolic Activation: None): active; positive (not dose related)
mutagenic call [4]: active; positive
mutagenic call (Test System: CHINESE HAMSTER OVARY, Strain/Indicator: D422 (APRT), Metabolic Activation: NONE, Method: REPLATING): active; positive
mutagenic call (Test System: CHINESE HAMSTER V-79, Strain/Indicator: V-79/6-THIOGUANINE, Metabolic Activation: NONE, Method: STANDARD PLATE): active; positive

O=C1c2ccccc2-c2c3c(cc4ccnc1c24)OCO3
mutagenic call [6]: inactive; negative
mutagenic call (Test System: AMES SALMONELLA TYPHIMURIUM, Strain/Indicator: TA98, Metabolic Activation: RAT, LIVER, S-9, PHENOBARBITAL AND BETA-NAPHTHOFLAVONE, Method: PREINCUBATION): active; positive
mutagenic call [7]: inactive; negative
mutagenic call (Test System: AMES SALMONELLA TYPHIMURIUM, Strain/Indicator: TA100, Metabolic Activation: RAT, LIVER, S-9, PHENOBARBITAL AND BETA-NAPHTHOFLAVONE, Method: PREINCUBATION): active; positive

Source: PubChem BioAssay AID1259407 (Chemical Carcinogenesis Research Information System (CCRIS), 2018)
